# Patent publication US8586719B2, “Triterpenes for modulating gene expression and cell membrane, and as antiprotozoal agents” (Pacific Arrow Limited, priority 2005, dated 2013)
# Columns and labels:
# angiopoietin 2 = assay: Microarray gene expression in ES2 cells: angiopoietin 2; assay type: cell-based, human; details: micro array
# Description: (§1) The composition comprises bioactive compounds from natural plants or synthesis. The majority of the plants are from the Sapindaceae family, which has 140-150 genera with 1400-2000 species. The program is based on our purification methods and biological assays including the MTT assay See International Application No. PCT/US05/31900, filed Sep. 7, 2005, U.S. Ser. No. 11/289,142, filed Nov. 28, 2005, and U.S. Ser. No. 11/131,551, filed May 17, 2005, and PCT/US2008/002086, 1188-ALA-PCT, filed Feb. 15, 2008, the contents of which are incorporated herein by reference. The details of Analysis of gene expression of ES2 cells after Y-treatment by Microarray, Data Analysis Methods and Western blot in PCT/US2008/002086, 1188-ALA-PCT, filed Feb. 15, 2008, the contents of which are incorporated herein by reference
# Angiogenesis is a process involving the growth of new blood vessels. It is a normal process in growth and development. However, this is also a fundamental step in the transition of tumors from a dormant state to a malignant state. The angiopoietins are protein growth factors that modulate angiogenesis. […]
# ES2 cells = assay: Microarray experiments: lists of modulated genes; assay type: cell-based, human
# Description: as §1
# [1] = system: DDIT3 (DNA-damage-inducible transcript 3); assay: Gene expression by Real-time PCR: DDIT3; assay type: cell-based; details: DMSO control = 100
# Description: (§2) Determination of gene expression by Real-time PCR method (Brilliant QPCR, Agilent Technologies): The real-time polymerase chain reactions further confirm the results obtained from micro array analysis. The Real-time PCR results (shown below) confirmed that Compound Y3 and YM increase the expression of the genes: ANGPT2, DDIT3, LIF and NFKB1Z
# (bladder) TB9 cells = assay: Anti-cancer activity (MTT assay), bladder TB9 cells; assay type: cell-based; details: Homo sapiens
# Description: (Our purification methods and biological assays including the MTT assay in International Application No. PCT/US05/31900, filed Sep. 7, 2005, U.S. Ser. No. 11/289,142, filed Nov. 28, 2005, and U.S. Ser. No. 11/131,551, filed May 17, 2005, and PCT/US2008/002086, 1188-ALA-PCT, filed Feb. 15, 2008, the contents of which are incorporated herein by reference)
# Experiment details of herb extraction, analysis of extract components by HPLC, determination of the cell-growth activity effected by Xanifolia Y with cells derived from different human organs using MTT Assay, purification of the bioactive components from plant extract, fractionation of plant extracts with FPLC, isolation of component Ys with preparative HPLC, determination of the chemical structure, cell experiments and animal studying are disclosed in PCT/US05/31900, U.S. Ser. No. 11/289,142, U.S. Serial 10/906,303, U.S. Ser. No. 11/131,551 and U.S. Ser. Nos. 11/683,198, filed on Mar. 7, 2007, PCT/US2007/077273, filed Aug. 30, 2007, U.S. Ser. No. 60/890,380, filed on Feb. 16, 2007, U.S. Nos. 60/947,705, filed on Jul. 3, 2007, PCT/US2008/002086, 1188-ALA-PCT, filed Feb. 15, 2008, the contents of which are incorporated herein by reference. Experiments 1-23 of PCT/US2008/002086, 1188-ALA-PCT, filed Feb. 15, 2008 are incorporated herein by reference.
# TNC (Tenascin C) = assay: Gene expression by Real-time PCR: TNC; assay type: cell-based; details: control = 100
# Description: as §2
# Fibronectin [2] = assay: Fibronectin secretion, lung carcinoma cells (H460); assay type: cell-based, human; details: Homo sapiens, NCI-H460; H460 cells; 20 ug/ml
# Procedure: (§3) Reduction of Fibronectin secretion from ES2 cells after xanifolia-Y treatment. • (Results of F1, F3, F4, F5, F7, F8, F11, F12A, F15, F16, F17) Data in PCT/US2008/002086, 1188-ALA-PCT, filed Feb. 15, 2008 are incorporated herein by reference • (F11) For lung carcinoma cells (H460), at concentration of 20 ug/ml, there are inhibitions of Fibronectin secretion ranged from 20-60%. • (F12A) For bladder carcinoma cells (HTB-9), Xanifolia-Y (10 ug/ml) inhibits 50% of Fibronectin secretion. • (F15) In liver HepG2 cells. 10 ug/ml of xanifolia-Y inhibits 42% secretion of Fibronectin. • (F16) Incubation of brain glioblastoma T98G cells with 10 ug/ml of xanifolia-Y inhibits 27% Fibronectin secretion and with 20 ug/ml Y inhibits 74% Fibronectin secretion. • (F17) For skin SK-MeI-5 cells, the inhibition is 40-57% with 20 ug/ml of Xanifolia-Y.
# Fibronectin [3] = assay: Fibronectin secretion from ES2 cells; assay type: cell-based, human
# Procedure: as §3
# [4] = system: protein phosphatase 1, regulatory (inhibitor) subunit 15A (PPP1R15A); assay: Microarray gene expression in ES2 cells: PPP1R15A; assay type: cell-based, human
# Description: as §1
# FN1 (fibronectin 1) = assay: Gene expression by Real-time PCR: FN1; assay type: cell-based; details: control = 100
# Description: as §2
# ANGPT2 (angiopoietin 2) = assay: Gene expression by Real-time PCR: ANGPT2; assay type: cell-based; details: DMSO control = 100
# Description: as §2
smiles,measurement,setting,value
"C/C=C(/C)C(=O)O[C@H]1[C@H](OC(=O)/C(C)=C\C)[C@@]2(CO)C(CC1(C)C)C1=CCC3[C@@]4(C)CC[C@H](O[C@@H]5OC(C(=O)O)[C@@H](O)[C@@H](O[C@@H]6O[C@@H](CO)[C@@H](O)C6O)C5O[C@@H]5OC(CO)[C@H](O)[C@@H](O)C5O)C(C)(C)C4CC[C@@]3(C)[C@]1(C)[C@@H](O)[C@H]2O (stereo partly drawn) [Y, 3-O-[β-D-galactopyranosyl(1→2)]-α-L-arabinofuranosy (1→3)-β-D-glucuronopyranosyl-21,22-O-diangeloyl-3β, 15α, 16α, 21β, 22α, 28-hexahydroxyolean-12-ene]",gene expression of angiopoietin 2,angiopoietin 2,promote
same,"genes expression of the adhesion-related genes listed in b182 (FN1, ITGAV, LAMA4 ...)",ES2 cells,inhibited
same,gene expression of the genes listed in b176,ES2 cells; Microarray,modulates
same,gene expression of the genes listed in b178,ES2 cells; Microarray,inhibiting
same,gene expression of the genes listed in b180,ES2 cells; Microarray,stimulates
same,"DDIT3 expression, % of control",[1],213 % of control
same,IC50,(bladder) TB9 cells,5 µg/mL
same,"TNC expression, % of control",TNC (Tenascin C),41.1 % of control
same,inhibition at 20 µg/mL,Fibronectin [2],20 to 60%
same,Fibronectin secretion from ES2 cells,Fibronectin [3],Reduction
same,"PPP1R15A expression (given as Y/D, YM/D)",[4]; 37028_at,2.4
same,"PPP1R15A expression (given as Y/D, YM/D)",[4]; 202014_at,2.6
same,"FN1 expression, % of control",FN1 (fibronectin 1),44.1 % of control
same,"ANGPT2 expression, % of control",ANGPT2 (angiopoietin 2),300 % of control
